Target: T1, PA4991 (Pseudomonas aeruginosa, UniProt Q9HUH4)
T1 construct: N-terminal His6 tag cut with TEV protease; expressed in E. coli BL21(DE3)
T1 sequence (Q9HUH4 1-391): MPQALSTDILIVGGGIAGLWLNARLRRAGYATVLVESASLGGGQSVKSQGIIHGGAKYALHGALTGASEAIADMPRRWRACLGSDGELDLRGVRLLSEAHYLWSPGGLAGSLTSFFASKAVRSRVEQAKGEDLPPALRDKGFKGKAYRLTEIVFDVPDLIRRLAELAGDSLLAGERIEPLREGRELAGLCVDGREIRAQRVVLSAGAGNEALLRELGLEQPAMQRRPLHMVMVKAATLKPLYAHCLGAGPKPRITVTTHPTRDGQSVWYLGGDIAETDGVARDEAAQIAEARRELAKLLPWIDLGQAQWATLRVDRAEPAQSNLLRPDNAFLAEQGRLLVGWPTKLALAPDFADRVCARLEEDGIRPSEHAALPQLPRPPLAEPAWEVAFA
Experiment: X-ray crystal structure, […] A; UV-visible spectrum
Type: binding
Details: noncovalent; co-purified cofactor, extended conformation; crystals pH 8.5, soaked in 1 mM phenylmercuric chloride

Cc1cc2nc3c(=O)[nH]c(=O)nc-3n(C[C@H](O)[C@H](O)[C@H](O)COP(=O)(O)OP(=O)(O)OC[C@H]3O[C@@H](n4cnc5c(N)ncnc54)[C@H](O)[C@@H]3O)c2cc1C [FAD]
X-ray crystal structure, 2.40 A; UV-visible spectrum: FAD is bound noncovalently to PA4991 in an extended conformation
